Experimental data published in ChEMBL document CHEMBL5126615, “Identification of RAD51-BRCA2 Inhibitors Using N-Acylhydrazone-Based Dynamic Combinatorial Chemistry” (ACS Med Chem Lett, 2022).
Activity calls are given as the source filed them. No cut-off for these calls is given here.

Legend:
[1] = Inhibition of recombinant human His-tagged RAD51 expressed in Escherichia coli Rosetta2(DE3)pLysS cells/BRCA2 (unknown origin) by ELISA
[2] = target: T1, DNA repair protein RAD51 homolog 1 (Homo sapiens) (UniProt Q06609); test: Binding affinity to recombinant human His-tagged RAD51 expressed in Escherichia coli Rosetta2(DE3)pLysS cells by 19F-NMR assay
T1 sequence (whole entry): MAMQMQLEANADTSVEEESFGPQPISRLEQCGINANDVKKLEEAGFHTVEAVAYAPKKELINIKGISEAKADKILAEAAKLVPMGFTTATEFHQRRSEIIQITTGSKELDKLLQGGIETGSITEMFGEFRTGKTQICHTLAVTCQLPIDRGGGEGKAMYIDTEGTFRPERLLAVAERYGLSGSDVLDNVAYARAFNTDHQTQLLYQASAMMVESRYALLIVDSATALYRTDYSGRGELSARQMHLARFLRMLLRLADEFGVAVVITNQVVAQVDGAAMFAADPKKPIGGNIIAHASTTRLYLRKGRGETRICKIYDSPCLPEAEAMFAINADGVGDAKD

SMILES	EC50 [1] [µM]	Activity [2]
O=C(CCCOc1ccc(Cl)cc1Cl)N/N=C/c1ccc2cc[nH]c2c1	50	
O=C(CCCOc1ccc(Cl)cc1Cl)N/N=C/c1cc2c(s1)CCCC2	86	
CN(C)c1ccc(/C=N/NC(=O)[C@H](Cc2ccccc2)NC(=O)OC(C)(C)C)cc1	70	
Cc1cccc(Cn2nc(C(C)(C)C)cc2C(=O)N/N=C/c2ccc(N(C)C)cc2)c1	130	
O=C(CCCOc1ccc(Cl)cc1Cl)N/N=C/c1cccc(C(F)(F)F)c1	19	

Second part, the molecule after the results:

EC50 [1] [µM]	Activity [2]	SMILES
19	Active	O=C(CCCOc1ccc(Cl)cc1Cl)N/N=C/c1cccnc1F
60		COc1cccc(/C=N/NC(=O)CCCOc2ccc(Cl)cc2Cl)c1
18		O=C(CCCOc1ccc(Cl)cc1Cl)N/N=C/c1ccc(C(F)(F)F)nc1
110		COc1ccc(/C=N/NC(=O)CCCOc2ccc(Cl)cc2Cl)cn1
35		O=C(CCCOc1ccc(Cl)cc1Cl)N/N=C/c1ccc2nccnc2c1
